Measurements published in US10351576B2, “Fused tricyclic pyrazole derivatives useful for farnesoid X receptors” (NOVARTIS AG, priority 2015, dated 2019).

Target: T1, human Farnesoid X Receptor (FXR) ligand binding domain (GST-FXR LBD) (Homo sapiens, UniProt Q96RI1)
T1 construct: purchased Invitrogen
T1 sequence (Q96RI1 193-472 isoform Q96RI1-2): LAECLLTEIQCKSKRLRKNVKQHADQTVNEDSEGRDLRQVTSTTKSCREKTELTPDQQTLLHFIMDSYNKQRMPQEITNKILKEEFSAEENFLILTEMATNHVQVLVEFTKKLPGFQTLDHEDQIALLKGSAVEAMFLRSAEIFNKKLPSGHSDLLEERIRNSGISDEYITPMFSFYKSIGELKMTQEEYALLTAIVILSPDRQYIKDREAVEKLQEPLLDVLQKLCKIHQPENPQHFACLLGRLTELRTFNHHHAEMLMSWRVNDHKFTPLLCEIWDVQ
Experiment: Human GST-FXR LBD co-activator interaction assay (FXR HTRF assay)
Format: biochemical
Conditions: ligand-dependent interaction of GST-FXR LBD with biotin-labeled SRC-1 peptide, response relative to GW4064, read-out: FXR coactivator interaction assay (HTRF)
Text: Human GST-FXR LBD Co-Activator Interaction Assay
The FXR HTRF assay is a biochemical assay measuring the interaction between FXR and a coactivator protein (SRC1). The ligand-induced interaction with a coactivator protein is a critical step in transcriptional activation by FXR. Thus, this is an assay designed to measure FXR agonist activity of the test compounds.
Recombinant human Farnesoid X Receptor (FXR) ligand binding domain (amino acids 193-472) fused to glutathione S-transferase (GST) purified protein (GST-FXR LBD) was purchased (Invitrogen). The ligand-dependent interaction between GST-FXR LBD and a peptide derived from Steroid Receptor Coactivator-1 (SRC-1) was monitored by Fluorescence Resonance Energy Transfer (FRET). […] Test compounds (in DMSO solution) and detection reagents (anti-GST-Cryptate labeled antibody and Streptavidin-XL665 conjugate; CisBio) were added in assay buffer containing 50 mM KF. Plates are incubated at room temperature in the dark for 2.5 hrs before reading on an Envision (PerkinElmer) at 665 nm and 590 nm. The HTRF assay results were calculated from the 665 nm/590 nm ratio (ratio=(A665 nm/A590 nm)×10^4) and expressed in Delta F %=(Ratiosample−Rationegative)/Rationegative×100.
A negative control (without Streptavidin-XL665) was run with each assay and represented the background fluorescence. A reference FXR agonist, (E)-3-(2-chloro-4-((3-(2,6-dichlorophenyl)-5-isopropylisoxazol-4-yl)methoxy)styryl)benzoic acid (Compound GW4064), was included in each experiment as positive control. The efficacy of each test compound was compared to that of GW4064. At each concentration, the relative activity of the test compound was expressed as Response %=(Rsample−RDMSO)/(Rpositive−RDMSO), where Rsample is the HTRF response (expressed in Delta F %) for the test compound, Rpositive is the maximal response for GW4064 at saturating concentrations, and RDMSO is the response for DMSO control. The EC50 values were calculated using GraphPad Prism (GraphPad Software) using non-linear regression curve fit (log(agonist) vs. response—variable slope (four parameters)).

EC50 | SMILES
717 nM | Cn1nc(C(=O)N(CC(=O)NC2CCC(O)CC2)Cc2ccccc2F)c2c1-c1cc(Cl)ccc1OC2 (stereo not shown) [Compound 38, 2-(1-{8-chloro-1-methyl-1H,4H-chromeno[4,3-c]pyrazol-3-yl}-N-[(2-fluorophenyl)methyl]formamido)-N-(4-hydroxycyclohexyl)acetamide]
48 nM | Cn1nc(C(=O)N(CC(=O)NCC2CC2)Cc2nccs2)c2c1-c1cc(Cl)ccc1OC2 [Compound 81, 2-(1-{8-chloro-1-methyl-1H,4H-chromeno[4,3-c]pyrazol-3-yl}-N-(1,3-thiazol-2-ylmethyl)formamido)-N-(cyclopropylmethyl)acetamide]
10 nM | CC(C)C(=O)NCCN(Cc1ccccc1F)C(=O)c1nn(C)c2c1COc1ccc(Cl)cc1-2 [Compound 66, N-[2-(1-{8-chloro-1-methyl-1H,4H-chromeno[4,3-c]pyrazol-3-yl}-N-[(2-fluorophenyl)methyl]formamido)ethyl]-2-methylpropanamide]
22 nM | CC(C)C(=O)NCCN(Cc1ccccc1)C(=O)c1nn(C)c2c1COc1ccc(Br)cc1-2 [Compound 68, N-[2-(N-benzyl-1-{8-bromo-1-methyl-1H,4H-chromeno[4,3-c]pyrazol-3-yl}formamido)ethyl]-2-methylpropanamide]
190 nM | Cn1nc(C(=O)N(CC(=O)NC(C)(C)C)Cc2ccccc2F)c2c1-c1cc(Cl)ccc1OC2 [Compound 30, N-tert-butyl-2-(1-{8-chloro-1-methyl-1H,4H-chromeno[4,3-c]pyrazol-3-yl}-N-[(2-fluorophenyl)methyl]formamido)acetamide]
21 nM | Cn1nc(C(=O)N(CC(=O)NC2CC2(F)F)Cc2cccc(F)c2)c2c1-c1cc(Cl)ccc1OC2 (stereo not shown) [Compound 10, 2-(1-{8-chloro-1-methyl-1H,4H-chromeno[4,3-c]pyrazol-3-yl}-N-[(3-fluorophenyl)methyl]formamido)-N-(2,2-difluorocyclopropyl)acetamide]
49 nM | CC(C)NC(=O)CN(Cc1cc(F)ccc1F)C(=O)c1nn(C)c2c1COc1ccc(Br)cc1-2 [Compound 16, 2-(1-{8-bromo-1-methyl-1H,4H-chromeno[4,3-c]pyrazol-3-yl}-N-[(2,5-difluorophenyl)methyl]formamido)-N-(propan-2-yl)acetamide]
246 nM | Cn1nc(C(=O)N(CC(=O)Nc2ccc(C(=O)N3CCOCC3)cc2)Cc2ccccc2F)c2c1-c1cc(Cl)ccc1OC2 [Compound 20, 2-(1-{8-chloro-1-methyl-1H,4H-chromeno[4,3-c]pyrazol-3-yl}-N-[(2-fluorophenyl)methyl]formamido)-N-[4-(morpholine-4-carbonyl)phenyl]acetamide]
193 nM | CNC(=O)CN(Cc1ccccc1)C(=O)c1nn(C)c2c1COc1ccc(Br)cc1-2 [Compound 34, 2-(N-benzyl-1-{8-bromo-1-methyl-1H,4H-chromeno[4,3-c]pyrazol-3-yl}formamido)-N methylacetamide]
36 nM | CC(C)NC(=O)CN(Cc1cccc(F)c1)C(=O)c1nn(C)c2c1COc1ccc(Br)cc1-2 [Compound 28, 2-(1-{8-bromo-1-methyl-1H,4H-chromeno[4,3-c]pyrazol-3-yl}-N-[(3-fluorophenyl)methyl]formamido)-N-(propan-2-yl)acetamide]
695 nM | CC(C)S(=O)(=O)NCCN(Cc1ccccc1)C(=O)c1nn(C)c2c1COc1ccc(Br)cc1-2 [Compound 64, N-benzyl-8-bromo-1-methyl-N-[2-(propane-2-sulfonamido)ethyl]-1H,4H-chromeno[4,3-c]pyrazole-3-carboxamide]
60 nM | Cn1nc(C(=O)N(CC(=O)NC2CC2)Cc2cccc(F)c2F)c2c1-c1cc(Cl)ccc1OC2 [Compound 22, 2-(1-{8-chloro-1-methyl-1H,4H-chromeno[4,3-c]pyrazol-3-yl}-N-[(2,3-difluorophenyl)methyl]formamido)-N-cyclopropylacetamide]
482 nM | Cn1nc(C(=O)N(CC(=O)NC2CCS(=O)(=O)C2)Cc2ccccc2F)c2c1-c1cc(Cl)ccc1OC2 (stereo not shown) [Compound 39, 8-chloro-N-(2-((1,1-dioxidotetrahydrothiophen-3-yl)amino)-2-oxoethyl)-N-(2-fluorobenzyl)-1-methyl-1,4-dihydrochromeno[4,3-c]pyrazole-3-carboxamide]
1610 nM | Cn1nccc1NC(=O)CN(Cc1ccccc1F)C(=O)c1nn(C)c2c1COc1ccc(Cl)cc1-2 [Compound 41, 2-(1-{8-chloro-1-methyl-1H,4H-chromeno[4,3-c]pyrazol-3-yl}-N-[(2-fluorophenyl)methyl]formamido)-N-(1-methyl-1H-pyrazol-5-yl)acetamide]
61 nM | Cn1nc(C(=O)N(CC(=O)NC2CC2)Cc2cccc(F)c2)c2c1-c1cc(Cl)ccc1OC2 [Compound 27, 2-(1-{8-chloro-1-methyl-1H,4H-chromeno[4,3-c]pyrazol-3-yl}-N-[(3-fluorophenyl)methyl]formamido)-N-cyclopropylacetamide]
13 nM | Cn1nc(C(=O)N(CC(=O)NCC2CC2)Cc2c(F)cccc2F)c2c1-c1cc(Cl)ccc1OC2 [Compound 5, 2-(1-{8-chloro-1-methyl-1H,4H-chromeno[4,3-c]pyrazol-3-yl}-N-[(2,6-difluorophenyl)methyl]formamido)-N-(cyclopropylmethyl)acetamide]
12 nM | Cn1nc(C(=O)N(CC(=O)NCC2CC2)Cc2cccc(F)c2F)c2c1-c1cc(Cl)ccc1OC2 [Compound 6, 2-(1-{8-chloro-1-methyl-1H,4H-chromeno[4,3-c]pyrazol-3-yl}-N-[(2,3-difluorophenyl)methyl]formamido)-N-(cyclopropylmethyl) acetamide]
27 nM | CC(C)NC(=O)CN(Cc1cccc(F)c1)C(=O)c1nn(C)c2c1COc1ccc(Cl)cc1-2 [Compound 15, 2-(1-{8-chloro-1-methyl-1H,4H-chromeno[4,3-c]pyrazol-3-yl}-N-[(3-fluorophenyl)methyl]formamido)-N-(propan-2-yl)acetamide]
78 nM | CC(C)NC(=O)CN(Cc1cc(F)cc(F)c1)C(=O)c1nn(C)c2c1COc1ccc(Cl)cc1-2 [Compound 24, 2-(1-{8-chloro-1-methyl-1H,4H-chromeno[4,3-c]pyrazol-3-yl}-N-[(3,5-difluorophenyl)methyl]formamido)-N-(propan-2-yl)acetamide]
1700 nM | Cn1nc(C(=O)N(CC(=O)NC(C)(C)c2ccccc2)Cc2ccccc2F)c2c1-c1cc(Cl)ccc1OC2 [Compound 43, 2-(1-{8-chloro-1-methyl-1H,4H-chromeno[4,3-c]pyrazol-3-yl}-N-[(2-fluorophenyl)methyl]formamido)-N-(2-phenylpropan-2-yl)acetamide]
96 nM | Cn1nc(C(=O)N(CC(=O)NCC2CC2)CC2CCCCC2)c2c1-c1cc(Cl)ccc1OC2 [Compound 74, 2-(1-{8-chloro-1-methyl-1H,4H-chromeno[4,3-c]pyrazol-3-yl}-N-(cyclohexylmethyl)formamido)-N-(cyclopropylmethyl)acetamide]
1 nM | Cn1nc(C(=O)N(CC(=O)NCC2CC2)Cc2ccccc2F)c2c1-c1cc(Cl)ccc1OC2 [Compound 3, 2-(1-{8-chloro-1-methyl-1H,4H-chromeno[4,3-c]pyrazol-3-yl}-N-[(2-fluorophenyl)methyl]formamido)-N-(cyclopropylmethyl)acetamide]
3 nM | Cn1nc(C(=O)N(CC(=O)NCCC(F)(F)F)Cc2cccc(F)c2)c2c1-c1cc(Cl)ccc1OC2 [Compound 2, 2-(1-{8-chloro-1-methyl-1H,4H-chromeno[4,3-c]pyrazol-3-yl}-N-[(3-fluorophenyl)methyl]formamido)-N-(3,3,3-trifluoropropyl)acetamide]
3 nM | Cn1nc(C(=O)N(CC(=O)NCCF)Cc2cccc(F)c2)c2c1-c1cc(Cl)ccc1OC2 [Compound 9, 2-(1-{8-chloro-1-methyl-1H,4H-chromeno[4,3-c]pyrazol-3-yl}-N-[(3-fluorophenyl)methyl]formamido)-N-(2-fluoroethyl)acetamide]
644 nM | CC(C)S(=O)(=O)NCCN(Cc1ccccc1F)C(=O)c1nn(C)c2c1COc1ccc(Cl)cc1-2 [Compound 63, 8-chloro-N-[(2-fluorophenyl)methyl]-1-methyl-N-[2-(propane-2-sulfonamido)ethyl]-1H,4H-chromeno[4,3-c]pyrazole-3-carboxamide]
